Measured values reported in ChEMBL document CHEMBL1201862, “PubChem BioAssay data set” (2004).
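Following 48 hours of exposure in 96-well plates, responses at five concentrations were used to interpolate endpoints linearly. Here, GI50 denotes the concentration required for 50% inhibition of growth.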 The source made the active and inactive calls. Cut-off read from the data, not from the text of the source: active = GI50 up to about 1.1 µM and inactive = higher.

Assays:
Assay in all cases: NCI anticancer screen, dose series, 48 h
TK-10 = tested on: TK-10
MOLT-4 = tested on: MOLT-4
SF-539 = tested on: SF-539
CCRF-CEM = tested on: CCRF-CEM
HT-29 = tested on: HT-29
UACC-62 = tested on: UACC-62
Malme-3M = tested on: Malme-3M
SF-295 = tested on: SF-295
MDA-MB-231 = tested on: MDA-MB-231
OVCAR-3 = tested on: OVCAR-3
NCI-H226 = tested on: NCI-H226
SK-MEL-2 = tested on: SK-MEL-2
SNB-75 = tested on: SNB-75
SF-268 = tested on: SF-268
IGROV-1 = tested on: IGROV-1
OVCAR-5 = tested on: OVCAR-5
SK-MEL-5 = tested on: SK-MEL-5
SR = tested on: SR

Row | SMILES | GI50 (TK-10) | GI50 (MOLT-4) | GI50 (SF-539) | GI50 (CCRF-CEM) | GI50 (HT-29) | GI50 (UACC-62) | GI50 (Malme-3M) | GI50 (SF-295) | GI50 (MDA-MB-231) | GI50 (OVCAR-3) | GI50 (NCI-H226) | GI50 (SK-MEL-2) | GI50 (SNB-75) | GI50 (SF-268) | GI50 (IGROV-1) | GI50 (OVCAR-5) | GI50 (SK-MEL-5) | GI50 (SR)
1 | OC12COc3ccccc3C1Oc1ccccc1C2 (stereo not given) | > 100 µM (inactive) | > 100 µM (inactive) | > 100 µM (inactive) | > 100 µM (inactive) | > 100 µM (inactive) | > 100 µM (inactive) | > 100 µM (inactive) | > 100 µM (inactive) | > 100 µM (inactive) | > 100 µM (inactive) | > 100 µM (inactive) | > 100 µM (inactive) | > 100 µM (inactive) | > 100 µM (inactive) | > 100 µM (inactive) | > 100 µM (inactive) | > 100 µM (inactive) | 
2 | COc1ccc(OC)c2c1C(=O)C(O)=C(Cl)C2=O | > 100 µM (inactive) | > 100 µM (inactive) | > 100 µM (inactive) | > 100 µM (inactive) | > 100 µM (inactive) | > 100 µM (inactive) | > 100 µM (inactive) | > 100 µM (inactive) | > 100 µM (inactive) | > 100 µM (inactive) | > 100 µM (inactive) | > 100 µM (inactive) | > 100 µM (inactive) | > 100 µM (inactive) | > 100 µM (inactive) | > 100 µM (inactive) | > 100 µM (inactive) | 
3 | CN(C)CCCNC(=O)CCNC(=O)c1cc(NC(=O)c2cc(NC(=O)c3cc(NC(=O)c4nccn4C)cn3C)cn2C)cn1C | > 100 µM (inactive) | > 100 µM (inactive) | 54.6 µM (inactive) | > 46.8 µM (inactive) | > 100 µM (inactive) | > 100 µM (inactive) | > 100 µM (inactive) | > 100 µM (inactive) | > 100 µM (inactive) | > 78.2 µM (inactive) | > 100 µM (inactive) | > 100 µM (inactive) | 54.7 µM (inactive) | 44.8 µM (inactive) | > 100 µM (inactive) | > 100 µM (inactive) | > 100 µM (inactive) | 
4 | CCN1C(NCCO)=NS(=O)(=O)c2ccccc21 | > 100 µM (inactive) | > 100 µM (inactive) | > 100 µM (inactive) | > 100 µM (inactive) | > 100 µM (inactive) | > 100 µM (inactive) |  | > 100 µM (inactive) | > 100 µM (inactive) | > 100 µM (inactive) | > 100 µM (inactive) | > 100 µM (inactive) |  | > 100 µM (inactive) | > 100 µM (inactive) | > 100 µM (inactive) | > 100 µM (inactive) | > 100 µM (inactive)
5 | CC(=O)N[C@@H](Cc1ccc(O)cn1)C(=O)NC1CCCCC1 | > 100 µM (inactive) | > 100 µM (inactive) | > 100 µM (inactive) | > 100 µM (inactive) | > 100 µM (inactive) | > 100 µM (inactive) |  | > 100 µM (inactive) | > 100 µM (inactive) | > 100 µM (inactive) | > 100 µM (inactive) | > 100 µM (inactive) |  | > 100 µM (inactive) | > 100 µM (inactive) | > 100 µM (inactive) | > 100 µM (inactive) | > 100 µM (inactive)
6 | O=C1CCCc2cc3c(cc21)CC1(Cc2ccccc2C1)C3 | 7.16 µM (inactive) | 3.52 µM (inactive) | 3.89 µM (inactive) |  | 2.8 µM (inactive) | 8.91 µM (inactive) | 9.79 µM (inactive) | 4.03 µM (inactive) | 8.18 µM (inactive) | 2.56 µM (inactive) | 2.03 µM (inactive) | 15 µM (inactive) | 0.106 µM (active) |  | 7.43 µM (inactive) | 7.66 µM (inactive) | 4.89 µM (inactive) | 
7 | OC(CCN1CCN(CCOC(c2ccccc2)c2ccccc2)CC1)c1ccccc1 (stereo not given) | 22.3 µM (inactive) |  | 20.1 µM (inactive) | 27.7 µM (inactive) | 15.9 µM (inactive) | 11.5 µM (inactive) | 17.5 µM (inactive) | 20.1 µM (inactive) | 15.9 µM (inactive) | 25.6 µM (inactive) | 27.9 µM (inactive) | 15.8 µM (inactive) | 40.9 µM (inactive) | 22.8 µM (inactive) | 23.1 µM (inactive) | 33.2 µM (inactive) | 15.3 µM (inactive) | 
8 | CN(C)/C=C/c1nnc([N+](=O)[O-])s1 | 25.9 µM (inactive) |  | 8.79 µM (inactive) |  | 3.57 µM (inactive) | 16.4 µM (inactive) | 4.22 µM (inactive) | 13.8 µM (inactive) | 18.2 µM (inactive) | 2.65 µM (inactive) | 20.5 µM (inactive) | 17.2 µM (inactive) | 23.9 µM (inactive) | 14.6 µM (inactive) |  |  | 12 µM (inactive) | 
9 | Cc1ccc(S(=O)(=O)N2CCSCCN(S(=O)(=O)c3ccc(C)cc3)CCN(S(=O)(=O)c3ccc(C)cc3)CC2)cc1 |  | > 100 µM (inactive) | 17.6 µM (inactive) | > 100 µM (inactive) | > 100 µM (inactive) | > 100 µM (inactive) |  | 26.4 µM (inactive) | 17.4 µM (inactive) | > 100 µM (inactive) | > 100 µM (inactive) | 25.9 µM (inactive) |  | 16.7 µM (inactive) | 56.2 µM (inactive) | > 100 µM (inactive) | > 100 µM (inactive) | 
10 | COC1OC2COC(=O)c3cc(O)c(O)c(O)c3-c3c(cc(O)c(O)c3O)C(=O)OC2C(O)C1O (stereo not given) | > 100 µM (inactive) | 28.6 µM (inactive) | > 100 µM (inactive) | 37.3 µM (inactive) | 34.4 µM (inactive) | 21.4 µM (inactive) | > 100 µM (inactive) | 18.9 µM (inactive) | > 100 µM (inactive) | 80 µM (inactive) | > 100 µM (inactive) | 84.5 µM (inactive) | 62.8 µM (inactive) | 64 µM (inactive) | > 100 µM (inactive) | 53.8 µM (inactive) | 84.7 µM (inactive) | 
11 | COC(=O)[C@H](Cc1ccccc1)NC(=O)N(CCC#N)CCCCN(CCC#N)C(=O)N[C@@H](Cc1ccccc1)C(=O)OC | > 100 µM (inactive) | > 100 µM (inactive) |  |  |  | > 100 µM (inactive) | > 100 µM (inactive) | > 100 µM (inactive) | > 100 µM (inactive) | > 100 µM (inactive) | > 100 µM (inactive) | > 100 µM (inactive) | > 27.2 µM (inactive) | > 100 µM (inactive) |  | > 100 µM (inactive) | > 100 µM (inactive) | 
12 | O=C1OC(=O)C2CCCC3CCCC1C32 (stereo not given) | > 100 µM (inactive) | > 100 µM (inactive) | > 100 µM (inactive) | > 100 µM (inactive) | > 100 µM (inactive) | > 100 µM (inactive) | > 100 µM (inactive) | > 100 µM (inactive) | > 100 µM (inactive) | > 100 µM (inactive) | > 100 µM (inactive) | > 100 µM (inactive) | > 100 µM (inactive) | > 100 µM (inactive) | > 100 µM (inactive) | > 100 µM (inactive) | > 100 µM (inactive) | 
13 | Nc1ncnc2c1ccn2COC(CO)CO | > 100 µM (inactive) | 51.9 µM (inactive) | > 100 µM (inactive) | > 100 µM (inactive) | > 100 µM (inactive) | 37.4 µM (inactive) | > 100 µM (inactive) | > 100 µM (inactive) | > 100 µM (inactive) | > 100 µM (inactive) | 46.2 µM (inactive) | > 100 µM (inactive) | > 100 µM (inactive) | > 100 µM (inactive) | > 100 µM (inactive) | > 100 µM (inactive) | > 100 µM (inactive) | 
